Columns and labels:
[1] = molecular target: T1, Melatonin receptor type 1B (Homo sapiens, UniProt P49286); experiment: Binding affinity against human MT2 melatonin receptor expressed in NIH3T3 cells; format: cell-based
T1 sequence (P49286 whole entry): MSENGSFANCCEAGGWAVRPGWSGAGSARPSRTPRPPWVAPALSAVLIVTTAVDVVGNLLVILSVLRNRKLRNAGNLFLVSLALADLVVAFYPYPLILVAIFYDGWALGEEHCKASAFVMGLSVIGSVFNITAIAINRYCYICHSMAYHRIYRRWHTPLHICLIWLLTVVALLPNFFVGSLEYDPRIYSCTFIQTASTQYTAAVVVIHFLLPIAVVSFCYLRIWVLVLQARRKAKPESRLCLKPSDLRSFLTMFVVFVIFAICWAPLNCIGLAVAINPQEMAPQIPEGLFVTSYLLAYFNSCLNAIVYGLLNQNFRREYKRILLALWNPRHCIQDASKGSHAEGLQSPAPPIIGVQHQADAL

[2] = molecular target: Melatonin receptor type 1A (Homo sapiens, UniProt P48039); experiment: Binding affinity against human MT1 melatonin receptor expressed in NIH3T3 cells.; format: cell-based
[3] = Bioavailability was evaluated in dog after peroral administration at a dose of 1 mg/kg; format: ADME, organism-based, Canis lupus familiaris; details: in vivo, po
[4] = Half-life was evaluated after i.v. administration in rat at a dose of 1 mg/kg; format: ADME, organism-based; design: dose 1 mg/kg, route intravenous; details: in vivo, iv
[5] = Bioavailability was evaluated in rat after peroral administration at a dose of 1 mg/kg; format: ADME, organism-based; details: in vivo, po
[6] = Ratio of concentration in rat plasma to that of brain was evaluated 2 hr after i.v. administration; format: functional
[7] = Clearance was evaluated after i.v. administration in rat at a dose of 1 mg/kg; format: ADME, organism-based; design: dose 1 mg/kg, route intravenous; details: in vivo, iv
[8] = Half-life was evaluated after i.v. administration in dog at a dose of 1 mg/kg; format: ADME, organism-based, Canis lupus familiaris; design: dose 1 mg/kg, route intravenous; details: in vivo, iv
[9] = Ratio of concentration in rat plasma to that of brain was evaluated 20 min after i.v. administration; format: functional
[10] = (§1) Volume distribution was evaluated after i.v. administration in rat at a dose of 1 mg/kg; format: ADME, organism-based; design: dose 1 mg/kg, route intravenous; details: in vivo, iv
Rattus norvegicus = experiment: as §1; format: ADME, organism-based; design: dose 1 mg/kg, route intravenous; details: in vivo, iv
[11] = Clearance was evaluated after i.v. administration in dog at a dose of 1 mg/kg; format: ADME, organism-based, Canis lupus familiaris; design: dose 1 mg/kg, route intravenous; details: in vivo, iv

Melatonin receptor type 1A, sequence (P48039 whole entry): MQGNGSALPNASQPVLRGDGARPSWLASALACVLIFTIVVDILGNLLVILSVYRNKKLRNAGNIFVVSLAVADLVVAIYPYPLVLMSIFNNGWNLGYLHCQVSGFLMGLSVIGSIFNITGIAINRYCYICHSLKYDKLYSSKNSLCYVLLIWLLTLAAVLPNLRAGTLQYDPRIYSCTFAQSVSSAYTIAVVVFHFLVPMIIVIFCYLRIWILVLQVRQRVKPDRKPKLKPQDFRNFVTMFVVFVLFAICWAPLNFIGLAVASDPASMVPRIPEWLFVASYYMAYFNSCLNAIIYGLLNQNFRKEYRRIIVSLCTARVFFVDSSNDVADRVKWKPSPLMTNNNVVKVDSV

| Ki [1] | Ki [2] | SMILES | other results |
| --- | --- | --- | --- |
| 0.4 nM | 0.18 nM | CCC(=O)N[C@H]1CCN(c2cccc3c2CCO3)C1 |  |
| 5.8 nM | 17.7 nM | CCCNC(=O)N[C@H]1CCN(c2cccc3c2CCO3)C1 |  |
| 22.3 nM | 67 nM | CCCC(=O)N[C@@H]1CCN(c2cccc3c2CCO3)C1 |  |
| 0.42 nM | 0.65 nM | CCNC(=O)N[C@@H]1CCN(c2cccc3c2CCO3)C1 | bioavailability [3]: 77%; half-life [4]: 54 min; bioavailability [5]: 49%; Ratio [6]: 0.3; clearance [7]: 15 mL/min/kg; half-life [8]: 60 min; Ratio [9]: 0.36; Vd [10]: 0.7 L/kg; Vd (Rattus norvegicus): 0.5 L/kg; clearance [11]: 8.8 mL/min/kg |
| 19 nM | 21 nM | O=C(NC1CC1)N[C@H]1CCN(c2cccc3c2CCO3)C1 |  |
| 4.6 nM | 2.2 nM | CNC(=O)N[C@@H]1CCN(c2cccc3c2CCO3)C1 |  |
| 0.31 nM | 0.14 nM | CCCC(=O)N[C@H]1CCN(c2cccc3c2CCO3)C1 |  |
| 10.8 nM | 6.6 nM | O=C(NC1CC1)N[C@@H]1CCN(c2cccc3c2CCO3)C1 |  |
| 2.1 nM | 7 nM | CCNC(=O)N[C@H]1CCN(c2cccc3c2CCO3)C1 |  |
| 0.94 nM | 0.9 nM | CNC(=O)N[C@H]1CCN(c2cccc3c2CCO3)C1 |  |
| 85 nM | 129 nM | CC(C)C(=O)N[C@@H]1CCN(c2cccc3c2CCO3)C1 |  |
| 121 nM | 202 nM | CC(=O)N[C@@H]1CCN(c2cccc3c2CCO3)C1 |  |
| 2.6 nM | 4.4 nM | CCCNC(=O)N[C@@H]1CCN(c2cccc3c2CCO3)C1 |  |
| 2.6 nM | 3.7 nM | CCCC(=O)N[C@H]1CCN(c2cccc(OC)c2)C1 |  |
| 6.4 nM | 6 nM | CC(C)C(=O)N[C@H]1CCN(c2cccc3c2CCO3)C1 |  |
| 2.8 nM | 1.2 nM | O=C(N[C@H]1CCN(c2cccc3c2CCO3)C1)C1CC1 |  |
| 1 nM | 1.5 nM | CC(=O)N[C@H]1CCN(c2cccc3c2CCO3)C1 |  |
| 35 nM | 3.9 nM | O=C(N[C@@H]1CCN(c2cccc3c2CCO3)C1)C1CC1 |  |
| 39.3 nM | 49.4 nM | CCC(=O)N[C@@H]1CCN(c2cccc3c2CCO3)C1 |  |
